Measurements taken from ChEMBL document CHEMBL3745676, “Alkylamino derivatives of N-benzylpyrazine-2-carboxamide: synthesis and antimycobacterial evaluation” (Medchemcomm, 2015).
≈ marks a conversion by molar mass, not a printed value. Calls of active or inactive are those of the source. The calls are words filed in the database; no cut-off is given here.

What was measured:
[1] = Inhibition of Mycobacterium tuberculosis InhA
[2] = Lipophilicity, logK of the compound by RP-HPLC analysis; format: physicochemical
[3] = test system: Mycobacterium tuberculosis; experiment: Antimycobacterial activity against Mycobacterium tuberculosis H37Rv CNCTC My 331/88 incubated for 10 to 14 days by microplate alamar blue assay; format: functional
Mycobacterium kansasii = experiment: Antimycobacterial activity against Mycobacterium kansasii CNCTC My 235/80 incubated for 5 to 7 days by microplate alamar blue assay; format: functional
[4] = Cytotoxicity against CRFK cells assessed as cell viability after 4 to 6 days by formazan-based MTS assay; parameters: species or system Felis catus; conditions: cat
[5] = Cytotoxicity against HEL cells assessed as cell viability after 4 to 6 days by microscopic analysis; format: cell-based; conditions: human
[6] = Cytotoxicity against human HeLa cells assessed as cell viability after 4 to 6 days by microscopic analysis; format: cell-based
[7] = Cytotoxicity against African green monkey Vero cells assessed as cell viability after 4 to 6 days by microscopic analysis; format: cell-based; conditions: chlorocebus sabaeus
[8] = Cytotoxicity against MDCK cells assessed as cell viability after 4 to 6 days by formazan-based MTS assay; parameters: species or system Canis lupus familiaris; conditions: dog
[9] = Cytotoxicity against MDCK cells assessed as cell viability after 4 to 6 days by microscopic analysis; format: cell-based, Canis lupus familiaris; conditions: dog
Influenza A virus [10] = experiment: Antiviral activity against Influenza A virus (A/Puerto Rico/8/(H1N1)) assessed as inhibition of virus-induced cytopathic effect after 3 to 6 days by formazan-based MTS assay; format: functional, organism-based
Mycobacterium avium [11] = experiment: Antimycobacterial activity against Mycobacterium avium CNCTC My 80/72 after 5 days by microplate alamar blue assay; format: functional; conditions: CNCTC My 80/72, 120 h
Mycobacterium avium [12] = experiment: Antimycobacterial activity against Mycobacterium avium CNCTC My 152/73 after 5 days by microplate alamar blue assay; format: functional; conditions: CNCTC My 152/73, 120 h
Escherichia coli = experiment: Antibacterial activity against Escherichia coli CCM 4517 after 24 to 48 hrs by broth microdilution method; format: functional
Pseudomonas aeruginosa = experiment: Antibacterial activity against Pseudomonas aeruginosa CCM 1961 after 24 to 48 hrs by broth microdilution method; format: functional
Klebsiella pneumoniae [13] = experiment: Antibacterial activity against Klebsiella pneumoniae D 11750/08 after 24 to 48 hrs by broth microdilution method; format: functional
Klebsiella pneumoniae [14] = experiment: Antibacterial activity against ESBL positive Klebsiella pneumoniae J 14368/08 after 24 to 48 hrs by broth microdilution method; format: functional
Staphylococcus aureus [15] = experiment: Antibacterial activity against methicillin-resistant Staphylococcus aureus H 5996/08 after 24 to 48 hrs by broth microdilution method; format: functional, organism-based
Staphylococcus aureus [16] = experiment: Antibacterial activity against Staphylococcus aureus after 24 to 48 hrs by broth microdilution method; format: functional
Candida albicans = experiment: Antifungal activity against Candida albicans ATCC 44859 after 24 to 48 hrs by broth microdilution method; format: functional
Candida tropicalis = experiment: Antifungal activity against Candida tropicalis 156 after 24 to 48 hrs by broth microdilution method; format: functional
Pichia kudriavzevii = experiment: Antifungal activity against Candida krusei E28 after 24 to 48 hrs by broth microdilution method; format: functional
Nakaseomyces glabratus = experiment: Antifungal activity against Candida glabrata 20/I after 24 to 48 hrs by broth microdilution method; format: functional
Trichosporon asahii = experiment: Antifungal activity against Trichosporon asahii 1188 after 24 to 48 hrs by broth microdilution method; format: functional
Aspergillus fumigatus = experiment: Antifungal activity against Aspergillus fumigatus 231 after 24 to 48 hrs by broth microdilution method; format: functional
Lichtheimia corymbifera = experiment: Antifungal activity against Lichtheimia corymbifera 272 after 24 to 48 hrs by broth microdilution method; format: functional
[17] = test system: Trichophyton mentagrophytes; experiment: Antifungal activity against Trichophyton mentagrophytes 445 after 72 to 120 hrs by broth microdilution method; format: functional
Influenza A virus [18] = experiment: Antiviral activity against Influenza A virus (A/Puerto Rico/8/(H1N1)) assessed as inhibition of virus-induced cytopathic effect after 3 to 6 days by microscopic analysis; format: functional, organism-based
[19] = test system: Mycobacterium tuberculosis; experiment: Potency index, ratio of pyrazinamide MIC to compound MIC for Mycobacterium tuberculosis H37Rv CNCTC My 331/88; format: functional
[20] = test system: Respiratory syncytial virus; experiment: Antiviral activity against Respiratory syncytial virus infecetd in human HeLa cells assessed as inhibition of virus replication after 3 to 6 days; format: functional, organism-based
[21] = test system: Mycobacterium tuberculosis; experiment: Inhibition of mycolic acid synthesis in [1,2-14C]-acetate-labelled Mycobacterium tuberculosis H37Ra at 5 ug/ml preincubated for 20 hrs followed by radiolabelling measured after 24 hrs by autoradiography; format: functional, organism-based

| Compound | log K [2] | MIC [3] [µM] | MIC (Mycobacterium kansasii) | CC50 [4] [µM] | MCC [5] [µM] | MCC [6] [µM] | MCC [7] [µM] | CC50 [8] [µM] | MCC [9] [µM] | EC50 (Influenza A virus [10]) [µM] | MIC (Mycobacterium avium [11]) [µg/mL] | MIC (Mycobacterium avium [12]) [µg/mL] | MIC95 (Escherichia coli) [µM] | MIC95 (Pseudomonas aeruginosa) [µM] | MIC95 (Klebsiella pneumoniae [13]) [µM] | MIC95 (Klebsiella pneumoniae [14]) [µM] | MIC (Candida albicans) [µM] | MIC (Candida tropicalis) [µM] | MIC (Pichia kudriavzevii) [µM] | MIC (Nakaseomyces glabratus) [µM] | also measured |
| --- | --- | --- | --- | --- | --- | --- | --- | --- | --- | --- | --- | --- | --- | --- | --- | --- | --- | --- | --- | --- | --- |
| CCCCCCCCc1ccc(Oc2ccccc2)c(O)c1 | – | – | – | – | – | – | – | – | – | – | – | – | – | – | – | – | – | – | – | – | IC50 [1]: 0.005 µM |
| CCCCCCCCNc1cncc(C(=O)NCc2ccccc2)n1 | 1.431 | 9.2 (≈ 3.13 µg/mL) | 18 µM | > 100 | > 100 | > 100 | > 100 | 1.3 | 4 | > 100 | > 100 | > 100 | > 500 | > 500 | > 500 | > 500 | > 500 | > 500 | > 500 | > 500 | Activity (Staphylococcus aureus [15]): inactive; MIC95 (Staphylococcus aureus [16]): 3.9 µM (≈ 1.33 µg/mL); MIC (Trichosporon asahii): > 500 µM; MIC (Aspergillus fumigatus): > 500 µM; MIC (Lichtheimia corymbifera): > 500 µM; MIC [17]: > 500 µM; EC50 (Influenza A virus [18]): > 100 µM; Ratio [19]: <=20 |
| CCCCCCCCNc1cnc(C(=O)NCc2ccccc2)cn1 | 1.312 | 4.6 (≈ 1.57 µg/mL) | > 100 µg/mL | 28 | 100 | 100 | 20 | 62 | ≥ 20 | > 100 | > 100 | > 100 | > 500 | > 500 | > 500 | > 500 | > 500 | > 500 | > 500 | > 500 | MIC (Trichosporon asahii): > 500 µM; MIC (Aspergillus fumigatus): > 500 µM; MIC (Lichtheimia corymbifera): > 500 µM; MIC [17]: > 500 µM; EC50 (Influenza A virus [18]): 1.1 µM; EC50 [20]: 8.9 µM; inhibition [21]: inactive; Ratio [19]: <=20 |
